Data on 13 compounds can be found in patent publication US20240116985A1, “STAPLED PEPTIDES AND METHODS THEREOF” (priority 2020, published 2024).

For assay [1], the target named is T1, full-length beta-Catenin (Uniprot ID P35222) (Homo sapiens, UniProt P35222).
T1 construct: 10 nM full-length beta-Catenin (Uniprot ID P35222)
T1 sequence (P35222 1-781): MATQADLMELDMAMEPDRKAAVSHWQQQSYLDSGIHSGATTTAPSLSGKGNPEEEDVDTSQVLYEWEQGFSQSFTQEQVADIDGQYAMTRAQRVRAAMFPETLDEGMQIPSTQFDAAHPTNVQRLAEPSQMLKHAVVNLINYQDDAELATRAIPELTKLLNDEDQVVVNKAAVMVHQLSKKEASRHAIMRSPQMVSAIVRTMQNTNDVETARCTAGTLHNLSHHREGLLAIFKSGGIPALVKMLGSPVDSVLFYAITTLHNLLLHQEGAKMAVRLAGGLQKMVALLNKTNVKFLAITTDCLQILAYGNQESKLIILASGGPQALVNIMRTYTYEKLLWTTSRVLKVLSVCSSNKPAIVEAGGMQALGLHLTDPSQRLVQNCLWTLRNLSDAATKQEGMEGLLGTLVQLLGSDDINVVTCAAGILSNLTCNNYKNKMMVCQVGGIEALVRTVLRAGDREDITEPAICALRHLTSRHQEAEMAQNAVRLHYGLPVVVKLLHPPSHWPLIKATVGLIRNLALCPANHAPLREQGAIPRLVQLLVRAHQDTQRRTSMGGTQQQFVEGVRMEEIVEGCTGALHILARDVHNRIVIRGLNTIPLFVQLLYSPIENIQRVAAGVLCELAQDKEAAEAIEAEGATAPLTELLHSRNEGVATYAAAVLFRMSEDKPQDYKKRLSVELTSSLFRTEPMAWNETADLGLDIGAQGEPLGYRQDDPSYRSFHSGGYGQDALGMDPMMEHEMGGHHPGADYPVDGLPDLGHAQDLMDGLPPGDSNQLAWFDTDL
In words: Fluorescence polarization IC50 (beta-catenin / 5FAM-TCF4 10-53 competition). Format: binding. To be noted: read-out: beta-Catenin FP IC50. On the technique in general: In fluorescence polarisation assays a small probe gives low polarisation when free and higher when bound to something large.

For assay [2], the target named is T2, beta-catenin/TCF4 engagement (Homo sapiens, UniProt P35222).
T2 construct: expressed in transfected cells; host or cells: HEK293
T2 sequence (P35222 1-781): T1 sequence (P35222 1-781)
In words: Nano-BRET target engagement assay (B-cat-Halo & TCF4-Luc in HEK293 cells). Format: cell-based. The conditions noted are these: absolute IC50; read-out: NanoBRET Abs IC50. For orientation: Bioluminescence resonance energy transfer reports proximity on the nanometre scale.

SMILES strings stand for the structures. Where two headings read alike, the source gives them in different places.

In general, IC50 refers to the concentration needed to halve the response being measured. In the case of `CC(=O)N1CCC[C@]12CC=CCCCC1(CCCC=CCCCOC(=O)N3CC[C@@](C(=O)N[C@@H](Cc4ccccc4Cl)C(=O)N[C@@H](Cc4csc5ccccc45)C(=O)N[C@H](CO)Cc4ccccc4)(C3)NC(=O)[C@H](CC(N)=O)NC(=O)[C@H](Cc3ccccc3)NC(=O)[C@H](C)NC(=O)[C@H](C)NC(=O)[C@H](CC(=O)O)NC(=O)[C@H](CC(=O)O)NC1=O)NC(=O)[C@H](CC(C)(C)C)NC(=O)[C@H](CC(=O)O)NC2=O` (stereo partly drawn) [I-1083, Ac-PL3-Asp-Npg-B5-Asp-Asp-Ala-Ala-Phe-Asn-PyrS2-2C1F-BztA-Pheo1], the values for the IC50 in assay [1] and in assay [2] were 8 nM and 18800 nM, respectively.

`CC(=O)N1CCC[C@]12CC=CCCCC1(CCCC=CCCCOC(=O)N3CC[C@@](C(=O)N[C@@H](Cc4ccccc4Cl)C(=O)N[C@@H](Cc4csc5ccccc45)C(=O)N[C@@H](CCO)C(N)=O)(C3)NC(=O)[C@H](CO)NC(=O)[C@H](Cc3ccccc3)NC(=O)[C@H](C)NC(=O)[C@H](C)NC(=O)[C@H](CC(=O)O)NC(=O)[C@H](CC(=O)O)NC1=O)NC(=O)[C@H](CC1CCCCC1)NC(=O)[C@H](CC(=O)O)NC2=O` (stereo partly drawn) [I-1137, Ac-PL3-Asp-Cha-B5-Asp-Asp-Ala-Ala-Phe-Ser-PyrS2-2C1F-BztA-Hse-NH2]: the results for the IC50 in assay [1] (fluorescence polarization) and in assay [2] were 8 nM and 12000 nM, respectively.

`CC(=O)N1CCC[C@]12CC=CCCCC1(CCCC=CCCCOC(=O)N3CC[C@@](C(=O)N[C@@H](Cc4ccccc4Cl)C(=O)N[C@@H](Cc4csc5ccccc45)C(=O)N[C@@H](CC(C)C)C(N)=O)(C3)NC(=O)[C@H](CO)NC(=O)[C@H](Cc3ccccc3)NC(=O)[C@H](C)NC(=O)[C@H](C)NC(=O)[C@H](CC(=O)O)NC(=O)[C@H](CC(=O)O)NC1=O)NC(=O)[C@H](CC1CCCCC1)NC(=O)[C@H](CC(=O)O)NC2=O` (stereo partly drawn) [I-1138, Ac-PL3-Asp-Cha-B5-Asp-Asp-Ala-Ala-Phe-Ser-PyrS2-2C1F-BztA-Leu-NH2]: the 50% inhibitory concentration (IC50) is 18 nM in assay [1] (fluorescence polarization) and 19800 nM in assay [2].

In the case of `CC(=O)N1CCC[C@]12CC=CCCCC1(CCCC=CCCCOC(=O)N3CC[C@@](C(=O)N[C@@H](Cc4ccccc4Cl)C(=O)N[C@@H](Cc4csc5ccccc45)C(=O)N[C@H](C(N)=O)[C@@H](C)O)(C3)NC(=O)[C@H](CC(C)C)NC(=O)[C@H](Cc3ccccc3)NC(=O)[C@H](C)NC(=O)[C@H](C)NC(=O)[C@H](CC(=O)O)NC(=O)[C@H](CC(=O)O)NC1=O)NC(=O)[C@H](CC1CCCCC1)NC(=O)[C@H](CC(=O)O)NC2=O` (stereo partly drawn) [I-1139, Ac-PL3-Asp-Cha-B5-Asp-Asp-Ala-Ala-Phe-Leu-PyrS2-2C1F-BztA-Thr-NH2], the figures for the concentration for half-maximal inhibition (IC50) in assay [1] (fluorescence polarization) and in assay [2] were 22 nM and 18000 nM, respectively.

With `CC(=O)N1CCC[C@]12CC=CCCCC1(CCCC=CCCCOC(=O)N3CC[C@@](C(=O)N[C@@H](Cc4ccccc4Cl)C(=O)N[C@@H](Cc4csc5ccccc45)C(=O)N[C@@H](CCC(N)=O)C(N)=O)(C3)NC(=O)[C@H](CO)NC(=O)[C@H](Cc3ccccc3)NC(=O)[C@H](C)NC(=O)[C@H](CC(C)C)NC(=O)[C@H](CC(=O)O)NC(=O)[C@H](CC(=O)O)NC1=O)NC(=O)[C@H](Cc1ccccc1)NC(=O)[C@H](CC(=O)O)NC2=O` (stereo partly drawn) [I-1153, Ac-PL3-Asp-Phe-B5-Asp-Asp-Leu-Ala-Phe-Ser-PyrS2-2C1F-BztA-Gln-NH2], the results for the IC50 in assay [1] (fluorescence polarization) and in assay [2] were 12 nM and more than 20000 nM, respectively.

As for `CC(=O)N1CCC[C@]12CC=CCCCC1(CCCC=CCCCOC(=O)N3CC[C@@](C(=O)N[C@@H](Cc4ccsc4)C(=O)N[C@@H](Cc4csc5ccccc45)C(=O)N[C@@H](CO)C(N)=O)(C3)NC(=O)[C@H](CC(C)C)NC(=O)[C@H](Cc3ccccc3)NC(=O)[C@H](C)NC(=O)[C@H](C)NC(=O)[C@H]([C@@H](C)O)NC(=O)[C@H](CC(=O)O)NC1=O)NC(=O)[C@H](CC(C)(C)C)NC(=O)[C@H](CC(=O)O)NC2=O` (stereo partly drawn) [I-1171, Ac-PL3-Asp-Npg-B5-Asp-Thr-Ala-Ala-Phe-Leu-PyrS2-3Thi-BztA-Ser-NH2], the concentration for half-maximal inhibition (IC50) came out at 70 nM in assay [1] (fluorescence polarization) and 28800 nM in assay [2].

Turning to `CC(=O)N1CCC[C@]12CC=CCCCC1(CCCC=CCCCOC(=O)N3CC[C@@](C(=O)N[C@@H](Cc4ccccc4Cl)C(=O)N[C@@H](Cc4csc5ccccc45)C(=O)N[C@@H](CO)C(N)=O)(C3)NC(=O)[C@H](CC(C)C)NC(=O)[C@H](Cc3ccccc3)NC(=O)[C@H](C)NC(=O)[C@H](C)NC(=O)[C@H]([C@@H](C)O)NC(=O)[C@H](CC(=O)O)NC1=O)NC(=O)[C@H](CC(C)(C)C)NC(=O)[C@H](CC(=O)O)NC2=O` (stereo partly drawn) [I-1172, Ac-PL3-Asp-Npg-B5-Asp-Thr-Ala-Ala-Phe-Leu-PyrS2-2C1F-BztA-Ser-NH2], the 50% inhibitory concentration (IC50) in assay [1] (fluorescence polarization) is 45 nM; in assay [2] it was 19400 nM.

`CC(=O)N1CCC[C@]12CC=CCCCC1(CCCC=CCCCOC(=O)N3CC[C@@](C(=O)N[C@@H](Cc4ccsc4)C(=O)N[C@@H](Cc4csc5ccccc45)C(=O)N[C@@H](CCC(N)=O)C(N)=O)(C3)NC(=O)[C@H](CC(C)C)NC(=O)[C@H](Cc3ccccc3)NC(=O)C(C)(C)NC(=O)[C@H](C)NC(=O)[C@H](CC(=O)O)NC(=O)[C@H](CC(=O)O)NC1=O)NC(=O)[C@H](CC(C)(C)C)NC(=O)[C@H](CC(=O)O)NC2=O` (stereo partly drawn) [I-1178, Ac-PL3-Asp-Npg-B5-Asp-Asp-Ala-Aib-Phe-Leu-PyrS2-3Thi-BztA-Gln-NH2]: the figures for the half-inhibitory concentration (IC50) in assay [1] (fluorescence polarization) and in assay [2] were 54.5 nM and 28800 nM, respectively.

`C[C@@H]1NC(=O)[C@H](C)NC(=O)[C@H](CC(=O)O)NC(=O)[C@H](CC(=O)O)NC(=O)C2(CCCC=CCCCOC(=O)N3CC[C@@](C(=O)N[C@@H](Cc4ccsc4)C(=O)N[C@@H](Cc4csc5ccccc45)C(=O)N[C@@H](CCC(N)=O)C(N)=O)(C3)NC(=O)[C@H](CC(N)=O)NC(=O)[C@H](Cc3ccccc3)NC1=O)CCCC=CC[C@]1(CCCN1S(C)(=O)=O)C(=O)N[C@@H](CC(=O)O)C(=O)N[C@@H](CC(C)(C)C)C(=O)N2` (stereo partly drawn) [I-1218, MeSO2-PL3-Asp-Npg-B5-Asp-Asp-Ala-Ala-Phe-Asn-PyrS2-3Thi-BztA-Gln-NH2]: the half-inhibitory concentration (IC50) in assay [1] (fluorescence polarization) is 10 nM; in assay [2], more than 20000 nM.

In the case of `C[C@@H]1NC(=O)[C@H](C)NC(=O)[C@H](CN(CC(=O)O)CC(F)(F)F)NC(=O)[C@H](CC(=O)O)NC(=O)C2(CCCC=CCCCOC(=O)N3CC[C@@](C(=O)N[C@@H](Cc4ccsc4)C(=O)N[C@@H](Cc4csc5ccccc45)C(=O)N[C@@H](CCC(N)=O)C(N)=O)(C3)NC(=O)[C@H](CC(N)=O)NC(=O)[C@H](Cc3ccccc3)NC1=O)CCCC=CC[C@]1(CCCN1S(C)(=O)=O)C(=O)N[C@@H](CC(=O)O)C(=O)N[C@@H](CC(C)(C)C)C(=O)N2` (stereo partly drawn) [I-1219, MeSO2-PL3-Asp-Npg-B5-Asp-TfeGA-Ala-Ala-Phe-Asn-PyrS2-3Thi-BztA-Gln-NH2], the results for the IC50 in assay [1] (fluorescence polarization) and in assay [2] were 7 nM and more than 20000 nM, respectively.

With `CC(=O)N1CCC[C@]12CC=CCCCC1(CCCC=CCCCOC(=O)N3CC[C@@](C(=O)N[C@@H](Cc4ccsc4)C(=O)N[C@@H](Cc4csc5ccccc45)C(=O)N[C@@H](CCC(N)=O)C(N)=O)(C3)NC(=O)[C@H](CC(N)=O)NC(=O)[C@H](Cc3ccccc3)NC(=O)[C@H](C)NC(=O)[C@H](C)NC(=O)[C@H](CC(=O)O)NC(=O)[C@H](CC(=O)O)NC1=O)NC(=O)[C@H](CC(C)(C)C)NC(=O)[C@H](CC(N)=O)NC2=O` (stereo partly drawn) [I-1220, Ac-PL3-Asn-Npg-B5-Asp-Asp-Ala-Ala-Phe-Asn-PyrS2-3Thi-BztA-Gln-NH2], the IC50 in assay [1] (fluorescence polarization) was 11 nM; in assay [2] it was 17300 nM.

For the compound `CC(=O)N1CCC[C@]12CC=CCCCC1(CCCC=CCCCOC(=O)N3CC[C@@](C(=O)N[C@@H](Cc4ccsc4)C(=O)N[C@@H](Cc4csc5ccccc45)C(=O)N[C@@H](CCC(N)=O)C(N)=O)(C3)NC(=O)[C@H](CC(C)C)NC(=O)[C@H](Cc3ccccc3)NC(=O)[C@H](C)NC(=O)[C@H](C)NC(=O)[C@H](CC(=O)O)NC(=O)[C@H](CC(=O)O)NC1=O)NC(=O)[C@H](CC(C)(C)C)NC(=O)[C@H](CC(N)=O)NC2=O` (stereo partly drawn) [I-1221, Ac-PL3-Asn-Npg-B5-Asp-Asp-Ala-Ala-Phe-Leu-PyrS2-3Thi-BztA-Gln-NH2], the IC50 in assay [1] (fluorescence polarization) is 14 nM; in assay [2] it was 23400 nM.

In the case of `CC(=O)N1CCC[C@]12CC=CCCCC1(CCCC=CCCCOC(=O)N3CC[C@@](C(=O)N[C@@H](Cc4ccsc4)C(=O)N[C@@H](Cc4cccc5ccccc45)C(=O)N[C@@H](CCC(N)=O)C(N)=O)(C3)NC(=O)[C@H]([C@@H](C)O)NC(=O)[C@H](Cc3ccccc3)NC(=O)[C@H](C)NC(=O)[C@H](C)NC(=O)[C@H](CC(=O)O)NC(=O)[C@H](CC(=O)O)NC1=O)NC(=O)[C@H](CC(C)(C)C)NC(=O)[C@H](CC(=O)O)NC2=O` (stereo partly drawn) [I-1232, Ac-PL3-Asp-Npg-B5-Asp-Asp-Ala-Ala-Phe-Thr-PyrS2-3Thi-1NapA-Gln-NH2], the values for the half-inhibitory concentration (IC50) in assay [1] (fluorescence polarization) and in assay [2] were 31 nM and 43300 nM, respectively.
